{"source": "patent US9029337B2", "about": "“Modulation of factor 7 expression” (Isis Pharmaceuticals, Inc., priority 2007, dated 2015)", "format_in_all_cases": "in vivo, mouse", "key": {"BALB/c mice": {"test_system": "BALB/c mice", "assay": "Tail bleeding assay", "details": "mouse, in vivo", "protocol": "(§1) Mice not receiving treatment with FeCl3 solution were evaluated in a tail bleeding chamber. Mice were placed into the bleeding chamber two days after the final treatment of ISIS 403102 or PBS. Mice were anesthetized in the chamber with isofluorane and a small piece of tail (approximately 4 mm from the tip) was cut with sterile scissors. The cut tail was immediately placed in a 15 mL Falcon tube filled with approximately 10 mL of 0.9% NaCl buffer solution warmed to 37° C. The blood was collected over the course of 40 minutes. The saline filled tubes were weighed both before and after bleeding.\nTail-bleeding was measured to observe whether treatment with ISIS 403102 or warfarin causes internal hemorrhage in mice. ISIS 403102 and warfarin (Coumadin®) were evaluated in the tail bleeding assay. Six groups of BALB/c mice were treated with 1.25 mg/kg, 2.5 mg/kg, 5 mg/kg, 10 mg/kg, 20 mg/kg, or 40 mg/kg of ISIS 403102, administered subcutaneously twice a week for 3 weeks. An additional 6 groups of BALB/c mice were treated with 0.5 mg/kg, 1 mg/kg, 2 mg/kg, 3 mg/kg, 4 mg/kg, and 5 mg/kg of warfarin, administered intraperioneally daily for 6 days. A separate control group of BALB/c mice was treated with PBS, administered subcutaneously twice a week for 3 weeks.\nas §1, with “Two” for “Mice not receiving treatment with FeCl3 solution were evaluated in a tail bleeding chamber. Mice were placed into the bleeding chamber two”, “403102, warfarin,” for “403102”, “PBS, mice were placed in a tail bleeding chamber.” for “PBS.”\nISIS 403102 and Apixaban were evaluated in BALB/c mice. In a first group of BALB/c mice, 40 mg/kg of ISIS 403102 was administered subcutaneously twice a week for 3 weeks. An additional 3 groups of BALB/c mice were treated with 5 mg/kg and 10 mg/kg of Apixaban, administered in a single intraperitoneal dose, and 10 mg/kg of Apixaban administered as a single subcutaneous dose. A control group of BALB/c mice was treated with PBS, administered subcutaneously twice a week for 3 weeks.\nas §1, with “Two” for “Mice not receiving treatment with FeCl3 solution were evaluated in a tail bleeding chamber. Mice were placed into the bleeding chamber two”, “PBS, mice were placed in a tail bleeding chamber. Mice from the groups treated with Apixaban were analyzed 30 minutes after the single dose.” for “PBS.”, “weighed” for “weighed both”"}, "murine Factor 7 mRNA [1]": {"test_system": "murine Factor 7 mRNA", "assay": "Liver Factor 7 mRNA in the FeCl3 induced venous thrombosis model", "details": "for % inhibition of Factor 7 mRNA: liver; for % inhibition of Factor 7 mRNA, relative to PBS control: BALB/c mice liver, two days after last dose", "protocol": "Three groups of BALB/c mice were injected with 25 mg/kg, 37.5 mg/kg, or 50 mg/kg of ISIS 403102, administered subcutaneously twice a week for 3 weeks. Two control groups of BALB/c mice were treated with PBS, administered subcutaneously twice a week for 3 weeks. Thrombus formation was induced with FeCl3 in half of the mice while the rest of the mice were assayed for tail bleeding. Two days after receiving the last dose of ISIS 403102 or PBS, mice were anesthetized with 150 mg/kg ketamine mixed with 10 mg/kg xylazine administered by intraperitoneal injection. Thrombus formation was induced with FeCl3 in all groups of the VT mice except the first control group.\nIn mice undergoing FeCl3 treatment, thrombus formation was induced by applying a piece of filter paper (2×4 mm) pre-saturated with 10% FeCl3 solution directly on the vena cava. After 3 minutes of exposure, the filter paper was removed. Thirty minutes after the filter paper application, a fixed length of the vein containing the thrombus was dissected out for platelet analysis. Liver was collected for RNA analysis.\nRNA was extracted from liver tissue for real-time RT-PCR analysis of Factor 7. Results are presented as percent inhibition of Factor 7, relative to PBS control.\nISIS 403102 and warfarin (Coumadin®) were evaluated in BALB/c mice. Four groups of BALB/c mice were treated with 5 mg/kg, 10 mg/kg, 20 mg/kg, or 40 mg/kg of ISIS 403102, administered subcutaneously twice a week for 3 weeks. Two days after receiving the last dose of ISIS 403102, mice were anesthetized with 150 mg/kg ketamine mixed with 10 mg/kg xylazine administered by intraperitoneal injection. A fifth group of BALB/c mice was treated with 3 mg/kg of warfarin, administered intraperioneally daily for 6 days. Four hours after the last dose of warfarin, mice were sacrificed. A control group of BALB/c mice were treated with PBS, administered subcutaneously twice a week for 3 weeks. Two days after the last dose of PBS, mice were anesthetized with 150 mg/kg ketamine mixed with 10 mg/kg xylazine administered by intraperitoneal injection. Thrombus formation was induced with FeCl3 in groups of mice except the first control group."}, "murine Factor 7 mRNA [2]": {"test_system": "murine Factor 7 mRNA", "assay": "Single dose pharmacokinetic assay: liver Factor 7 mRNA in BALB/c mice", "details": "single dose 50 mg/kg; for % Inhibition: liver Factor 7 mRNA, BALB/c mice", "protocol": "The half-life and duration of action of ISIS 403102 in mice was evaluated. A group of 27 BALB/c mice was injected with 50 mg/kg of ISIS 403102. Three mice from the group were sacrificed at days 1, 2, 3, 4, 6, 8, 12, 24, and 56 after the single dose of ISIS 403102 was administered. A control group of 3 mice was injected with a single dose of PBS, and mice in this group were sacrificed on day 1. Mice in all groups were sacrificed by cervical dislocation following anesthesia with 150 mg/kg ketamine mixed with 10 mg/kg xylazine administered by intraperitoneal injection. Liver was harvested for RNA analysis and plasma was collected for clotting analysis (PT and aPTT).\nRNA was extracted from liver tissue for real-time RT-PCR analysis of Factor 7. Results are presented as percent inhibition of Factor 7, relative to PBS control. […] Results are presented as percent inhibition of Factor 7, relative to control."}}, "note": "e = 2'-O-(2-methoxyethyl) (MOE); d = 2'-deoxy (DNA)", "data": [{"sequence": "CCATAGAACAGCTTCACAGG (sugars from the 5' end e5 d10 e5, backbone and methylation of C not given here) [ISIS 403102]", "values": [{"measurement": "amount of bleeding in comparison to PBS treated mice", "setting": "BALB/c mice", "value": "slight decrease in the amount of bleeding"}, {"measurement": "bleeding as compared to PBS control mice", "setting": "BALB/c mice", "value": "did not significantly affect bleeding"}, {"measurement": "amount of bleeding in comparison to PBS treated mice", "setting": "BALB/c mice; 50 mg/kg", "value": "Bleeding was the same"}, {"measurement": "Blood (g), tail bleeding", "setting": "BALB/c mice; sc, 40 mg/kg", "value": 0.10, "unit": "g"}, {"measurement": "bleeding compared to PBS treated mice", "setting": "BALB/c mice; sc, 40 mg/kg", "value": "less bleeding than PBS treated mice"}, {"measurement": "% inhibition of Factor 7 mRNA", "setting": "murine Factor 7 mRNA [1]; Example 14, 25 mg/kg subcutaneously twice a week for 3 weeks", "value": 24, "unit": "%"}, {"measurement": "% inhibition of Factor 7 mRNA", "setting": "murine Factor 7 mRNA [1]; Example 14, 37.5 mg/kg subcutaneously twice a week for 3 weeks", "value": 74, "unit": "%"}, {"measurement": "% inhibition of Factor 7 mRNA", "setting": "murine Factor 7 mRNA [1]; Example 14, 50 mg/kg subcutaneously twice a week for 3 weeks", "value": 69, "unit": "%"}, {"measurement": "reduction of Factor 7 mRNA in comparison to the PBS control", "setting": "murine Factor 7 mRNA [1]; Example 14, 25, 37.5, 50 mg/kg twice a week for 3 weeks", "value": "significant dose-dependent reduction of Factor 7 mRNA"}, {"measurement": "reduction of Factor 7 mRNA in comparison to the PBS control", "setting": "murine Factor 7 mRNA [1]; Example 15, 5, 10, 20, 40 mg/kg subcutaneously twice a week for 3 weeks", "value": "significant dose-dependent reduction of Factor 7 mRNA"}, {"measurement": "% inhibition of Factor 7 mRNA, relative to PBS control", "setting": "murine Factor 7 mRNA [1]; Example 15, 5 mg/kg s.c. twice a week for 3 weeks", "value": 59, "unit": "%"}, {"measurement": "% inhibition of Factor 7 mRNA, relative to PBS control", "setting": "murine Factor 7 mRNA [1]; Example 15, 10 mg/kg s.c. twice a week for 3 weeks", "value": 84, "unit": "%"}, {"measurement": "% inhibition of Factor 7 mRNA, relative to PBS control", "setting": "murine Factor 7 mRNA [1]; Example 15, 20 mg/kg s.c. twice a week for 3 weeks", "value": 95, "unit": "%"}, {"measurement": "% inhibition of Factor 7 mRNA, relative to PBS control", "setting": "murine Factor 7 mRNA [1]; Example 15, 40 mg/kg s.c. twice a week for 3 weeks", "value": 99, "unit": "%"}, {"measurement": "% Inhibition", "setting": "murine Factor 7 mRNA [2]; day 1, relative to PBS control", "value": 61, "unit": "%"}, {"measurement": "% Inhibition", "setting": "murine Factor 7 mRNA [2]; day 2, relative to PBS control", "value": 87, "unit": "%"}, {"measurement": "% Inhibition", "setting": "murine Factor 7 mRNA [2]; day 3, relative to PBS control", "value": 92, "unit": "%"}, {"measurement": "% Inhibition", "setting": "murine Factor 7 mRNA [2]; day 4, relative to PBS control", "value": 92, "unit": "%"}, {"measurement": "% Inhibition", "setting": "murine Factor 7 mRNA [2]; day 6, relative to PBS control", "value": 86, "unit": "%"}, {"measurement": "% Inhibition", "setting": "murine Factor 7 mRNA [2]; day 8, relative to PBS control", "value": 80, "unit": "%"}, {"measurement": "% Inhibition", "setting": "murine Factor 7 mRNA [2]; day 12, relative to PBS control", "value": 72, "unit": "%"}, {"measurement": "% Inhibition", "setting": "murine Factor 7 mRNA [2]; day 24, relative to PBS control", "value": 11, "unit": "%"}, {"measurement": "% Inhibition", "setting": "murine Factor 7 mRNA [2]; day 56, relative to PBS control", "value": 0, "unit": "%"}, {"measurement": "duration of action", "setting": "murine Factor 7 mRNA [2]", "value": "at least 24 days"}, {"measurement": "peak effect", "setting": "murine Factor 7 mRNA [2]", "value": "~4", "unit": "days"}, {"measurement": "inhibition of Factor 7 mRNA", "setting": "murine Factor 7 mRNA [2]; day 4", "value": 92, "unit": "%"}, {"measurement": "inhibition of Factor 7 mRNA", "setting": "murine Factor 7 mRNA [2]; day 24", "value": 11, "unit": "%"}, {"measurement": "Factor 7 mRNA levels", "setting": "murine Factor 7 mRNA [2]; day 56", "value": "equal to that of the PBS control"}]}]}
